The Kinase Knowledgebase extract (Sharma et al. 2016)
Where “and” joins values, the source holds several entries; their conditions need not be identical. Equal entries are not always repeated.

Experiments:
EGFR [1] = target: EGFR (UniProt P00533)
EGFR (Hamster) = EGFR (Hamster) (UniProt P00533); details: for IC50: er22
EGFR [2] = target: EGFR (UniProt P00533); remark: listed apart in the source

EGFR, sequence (P00533 whole entry, looked up): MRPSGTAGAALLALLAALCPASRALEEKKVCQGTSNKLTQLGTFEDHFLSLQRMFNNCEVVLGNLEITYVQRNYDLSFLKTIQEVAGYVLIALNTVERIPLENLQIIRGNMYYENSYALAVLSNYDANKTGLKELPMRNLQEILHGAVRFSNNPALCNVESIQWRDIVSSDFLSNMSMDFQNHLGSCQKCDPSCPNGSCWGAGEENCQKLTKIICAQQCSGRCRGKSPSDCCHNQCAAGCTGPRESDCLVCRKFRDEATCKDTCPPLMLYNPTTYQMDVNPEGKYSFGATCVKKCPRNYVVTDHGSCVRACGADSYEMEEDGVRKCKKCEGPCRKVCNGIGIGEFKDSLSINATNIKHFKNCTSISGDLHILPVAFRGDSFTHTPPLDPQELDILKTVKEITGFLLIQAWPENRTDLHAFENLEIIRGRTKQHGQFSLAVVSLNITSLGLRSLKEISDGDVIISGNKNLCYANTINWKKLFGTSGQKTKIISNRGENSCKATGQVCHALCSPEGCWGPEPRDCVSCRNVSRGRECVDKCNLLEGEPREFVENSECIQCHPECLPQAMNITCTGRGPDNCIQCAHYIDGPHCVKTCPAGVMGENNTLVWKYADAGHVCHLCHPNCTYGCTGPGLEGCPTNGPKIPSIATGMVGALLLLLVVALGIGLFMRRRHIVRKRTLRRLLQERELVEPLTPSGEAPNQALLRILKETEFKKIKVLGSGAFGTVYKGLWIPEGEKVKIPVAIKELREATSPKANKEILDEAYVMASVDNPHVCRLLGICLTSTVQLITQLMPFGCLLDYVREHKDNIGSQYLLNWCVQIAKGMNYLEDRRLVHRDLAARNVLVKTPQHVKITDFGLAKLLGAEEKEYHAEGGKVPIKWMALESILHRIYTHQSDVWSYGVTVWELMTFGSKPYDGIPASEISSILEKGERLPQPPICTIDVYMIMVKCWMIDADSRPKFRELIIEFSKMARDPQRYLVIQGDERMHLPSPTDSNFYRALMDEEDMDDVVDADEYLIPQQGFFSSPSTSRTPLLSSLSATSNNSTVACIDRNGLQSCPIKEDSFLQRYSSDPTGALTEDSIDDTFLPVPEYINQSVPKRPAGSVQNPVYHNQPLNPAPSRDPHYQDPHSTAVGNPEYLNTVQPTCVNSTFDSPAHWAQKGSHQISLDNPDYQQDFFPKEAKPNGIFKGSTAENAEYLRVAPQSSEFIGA
EGFR (Hamster), sequence (P00533 whole entry, looked up): as above

Structure (SMILES) | IC50 (EGFR [1]) | IC50 (EGFR (Hamster)) | inhibition (EGFR (Hamster); er22, dose or concentration not given here) | IC50 (EGFR [2]) | inhibition (EGFR [1]; concentration not given here)
COC(=O)[C@H](Cc1ccccc1)NC(=O)c1cc(NCc2cc(O)ccc2O)ccc1O | 540 nM | 10000 nM | – | – | –
CCCCCCCCCCCCCCCCC(=O)Oc1ccc(NCc2cc(O)ccc2O)cc1C(=O)NCc1ccccc1 | 1500 nM | – | 20% | – | –
OCc1cc(NCc2cc(O)ccc2O)ccc1O | 2000 nM | 12000 nM | – | – | –
Oc1ccc(O)c(CNc2cccc(COCc3ccccc3)c2)c1 | 950 nM | 2500 nM | – | – | –
O=C(Cc1ccccc1)c1cc(NCc2cc(O)ccc2O)ccc1O | 60 nM | 10000 nM | – | – | –
O=C(CCc1ccccc1)c1cc(NCc2cc(O)ccc2O)ccc1O | 160 nM | 6500 nM | – | – | –
Oc1ccc(O)c(CNc2ccc(O)c(COc3ccccc3)c2)c1 | 700 nM | > 10000 nM | – | – | –
O=C(NCc1ccccc1)c1cc(NCc2cc(O)ccc2O)ccc1O | 20 nM and 38 nM | 6000 nM and 7000 nM | – | 40 nM | –
CC(O)c1cccc(NCc2cc(O)ccc2O)c1 (stereo not given) | 1600 nM | > 20000 nM | – | – | –
CC(COCc1cccc(NCc2cc(O)ccc2O)c1)CC(C)(C)C (stereo not given) | > 10000 nM | 2500 nM | – | – | –
CC(NC(=O)c1cc(NCc2cc(O)ccc2O)ccc1O)c1ccccc1 (stereo not given) | 70 nM | 10000 nM | – | – | –
O=C(Nc1ccccc1)c1cc(NCc2cc(O)ccc2O)ccc1O | 20 nM | 10000 nM | – | 90 nM | –
CC(C)c1ccc(NC(=O)c2cc(NCc3cc(O)ccc3O)ccc2O)cc1 | 150 nM | > 10000 nM | – | – | –
O=C(CCc1ccccc1)c1c(O)cccc1NCc1cc(O)ccc1O | 5000 nM | 4000 nM | – | – | –
O=C(Cc1ccccc1)c1cccc(NCc2cc(O)ccc2O)c1O | 2000 nM | 4800 nM | – | – | –
O=C(c1ccccc1)c1cccc(NCc2cc(O)ccc2O)c1 | 800 nM | 5000 nM | – | – | –
Oc1ccc(O)c(CNc2ccc(O)c(C(=S)NCc3ccccc3)c2)c1 | 150 nM | > 5000 nM | – | – | –
CC(CC(=O)c1cc(NCc2cc(O)ccc2O)ccc1O)CC(C)(C)C (stereo not given) | 370 nM | 2000 nM | – | – | –

Structure (SMILES) | IC50 (EGFR [1]) | IC50 (EGFR (Hamster)) | inhibition (EGFR (Hamster); er22, dose or concentration not given here) | IC50 (EGFR [2]) | inhibition (EGFR [1]; concentration not given here)
O=C(OCCCc1ccccc1)c1cc(NCc2cc(O)ccc2O)ccc1O | – | 2250 nM | – | – | –
CN(Cc1ccccc1)C(=O)c1cc(NCc2cc(O)ccc2O)ccc1O | 550 nM | > 10000 nM | – | – | –
N#Cc1cc(NCc2cc(O)ccc2O)ccc1O | 190 nM | > 10000 nM | – | – | –
CC(CNC(=O)c1cc(NCc2cc(O)ccc2O)ccc1O)CC(C)(C)C (stereo not given) | 800 nM | 6000 nM | – | – | –
CC(C)c1ccccc1NC(=O)c1cc(NCc2cc(O)ccc2O)ccc1O | 120 nM | > 10000 nM | – | – | –
CC(=O)c1cccc(NCc2cc(O)ccc2O)c1 | 1300 nM | 12000 nM | – | – | –
CC(COC(=O)c1cc(NCc2cc(O)ccc2O)ccc1O)CC(C)(C)C (stereo not given) | – | – | – | ≥ 10000 nM | –
CC(CC(=O)c1cccc(NCc2cc(O)ccc2O)c1O)CC(C)(C)C (stereo not given) | – | – | – | – | 24%
CC(=O)c1cc(NCc2cc(O)ccc2O)ccc1O | 340 nM | > 10000 nM | – | – | –
CC(C)(C)CC(C)(C)NC(=O)c1cc(NCc2cc(O)ccc2O)ccc1O | 220 nM | 9000 nM | – | 300 nM | –
COc1ccc(NCc2cc(O)ccc2O)cc1COCC(C)CC(C)(C)C (stereo not given) | 20000 nM | 800 nM | – | – | –
Oc1ccc(O)c(CNc2ccc(O)c(C(O)c3ccccc3)c2)c1 (stereo not given) | 1300 nM | 8200 nM | – | – | –
CC(COCc1cc(NCc2cc(O)ccc2O)ccc1O)CC(C)(C)C (stereo not given) | 10000 nM | 2000 nM | – | – | –
O=C(c1ccccc1)c1cc(NCc2cc(O)ccc2O)ccc1O | 300 nM | 10000 nM | – | – | –
CC(CSCc1cc(NCc2cc(O)ccc2O)ccc1O)CC(C)(C)C (stereo not given) | 1900 nM | 5000 nM | – | – | –
Oc1ccc(O)c(CNc2cccc(C(O)c3ccccc3)c2)c1 (stereo not given) | 1800 nM | 20000 nM | – | – | –
Oc1ccc(O)c(CNc2ccc(O)c(COCc3ccccc3)c2)c1 | 800 nM | > 10000 nM | – | – | –
